Values of other authors as cited in US4603142A, “Cholesterol lowering method of use” (Wisconsin Alumni Research Foundation, priority 1984, dated 1986).

Details: compared with tocotrienols; cited from earlier work

## Vitamin E
  Lowering of cholesterol: does not cause a similar lowering of cholesterol
